The text below walks through data of publication PMC11643690, “Chelating Properties of N6O-Donors Toward Cu(II) Ions: Speciation in Aqueous Environments and Catalytic Activity of the Dinuclear Complexes” (Molecules, 2024).

The conditions of data set [1]: cited from earlier work.
A short description of data set [2]: Potentiometric titration of the Cu(II)/L-CH3 system (constants of in situ-formed complexes). The class given is binding. As to conditions: for logβi of in situ-formed Cu(II) complex species: overall constant, Cu(II):L 1:1 and 2:1, DMSO 5% (v/v)/H2O (HCl/KCl); for logKi of in situ-formed Cu(II) complex species: stepwise protonation constant. The protocol:
The next step was the analysis of the system with L-CH3 and Cu(II). For a better investigation of the binging abilities of the L-CH3 ligand, the titration was performed both for the Cu(II):L-CH3 molar ratio = 1:1 and for 2:1. The overall (logβi) and stepwise (logKi) protonation constants of in situ-formed complexes are collected in Table 2. Depending on pH, L-CH3 forms mono- and di-nuclear complexes with Cu(II) ions, their relative abundance depending on the metal-to-ligand molar ratio.
Potentiometric measurements were carried out using the Metrohm pH-meter system (Herisau, Switzerland) with a Metrohm semi-micro combination electrode at 25 °C, calibrated in a hydrogen ion concentration using HCl. The ligands were dissolved in DMSO (5% v/v/H2O (HCl/KCl)) in order to obtain a concentration of 1 mM. The titrant (KOH 0.1M) was added with a micrometric syringe at 298 K in the pH range of 2.5–11.5 in an argon atmosphere. The stability constants and stoichiometry of the complexes were calculated using the titration curves and the SUPERQUAD and HYPERQUAD [47, 48].

Data set [3] in a line: UV–Vis titration of ligands with Cu(ClO4)2, binding constant by non-linear regression. To be noted: global formation constant β1,2 (1 ligand : 2 Cu(II)); 1 µM ligand, 5% v/v MeOH/BBS 50 mM, pH 7.4, 25 °C. Here is the method:
To determine the overall equilibrium constant β1,2 (Kbind), a solution of the ligand was titrated with aliquots of 0.2 equivalents of Cu(II). Monitoring the formation of the complex via UV–Vis spectroscopy, the absorbance around 260 nm, 300 nm, 450 nm, and 700 nm increased during the titration (Figure 3a) in all cases. The latter two bands are visible only at high concentrations (>0.1 mM). These changes are caused by the formation of the complex and the disappearance of the free ligand.
In Figure 3b, the linear increase in the absorbance change (ΔAbs) at 240 nm, upon an increase in Cu(II) amount, is evident, leading to a sharp plateau around 2 equivalents. […] The binding constants were determined by non-linear regression analysis of Equation (2), (2) ∆A/b=(K1∆A1Cu+ β1,2∆A2Cu^2)/1+K1Cu+ β1,2Cu^2 which traces the correlation “ΔAbs/b vs. Cu(II) concentration,” according to K. Connors. In this equation, ΔA is the differences in absorbance at a certain wavelength, b is the optical path (1 cm), K1 is the constant for the formation of the complex 1:1, and β1,2 is the global formation constant (Kbind) for the complex 1:2. ΔA1 and ΔA2 are the differences in absorbance due to the formation of the 1:1 complex and the 1:2 complex, respectively. […]
UV-vis spectra of ligands and complexes were recorded in a quartz cuvette, with 1 cm of optical path. […]

Data set [4] in a line: Peroxidase-like (pro-oxidant) activity, OPD oxidation to DAP by H2O2. The class given is biochemical. To be noted: 3.2 μM complex or salt, 0.32 mM OPD, 24 mM H2O2, PBS pH 7.8, 18 h, 25 °C. From the text: The pro-oxidant activity is named after another enzyme, the peroxidase. It is important to underline that this is a drawback of the studied complexes. Peroxidase, such as the already described […], decomposes hydrogen peroxide, producing water, but at the cost of oxidizing another substrate. Similarly, the complexes described here could remove hydrogen peroxide, catalyzing the oxidation of an organic substrate and leading to an enhancement of oxidative stress. Since all the catalytic measurements made so far were in the absence of an oxidizable substrate (excluding the catalyst itself), it is important to also verify this phenomenon. […] This variation in absorbance was monitored for 18 h via UV–Vis spectroscopy. […]
Figure S52: A) UV-vis spectra of [Cu2(L-RNH2)(H2O)2](ClO4)3 in a CAT assay measured every 10 minutes and centered at 450 nm. […] The arrow indicates the absorbance trend over time. B) Oxygen evolution (blue line) and absorbance at 244 nm (green dots) versus time.
For the peroxidase-like activity the variation of absorbance over time was monitored via UV-vis spectroscopy. The substrate OPD (o-phenylenediamine) was oxidized to DAP (2,3-diaminephenazine) by H2O2 in the presence of copper ions, leading to an increase of absorbance at 418 nm. […] The kinetic was recorded in a quartz cuvette with an optical path of 1 cm for 18h (acquiring a spectrum every 20 minutes) at 25°C. […]

On to “Cu/Zn-SOD(human): native Cu/Zn superoxide dismutase enzyme”, for which, in data set [1], the “log(kSOD)” value is on record as 9.30.
`Cc1cc(CN(Cc2ccccn2)Cc2ccccn2)c([O-])c(CN(Cc2ccccn2)Cc2ccccn2)c1.[Cu+2]` [[CuL]^+]: in data set [2], the “logβi of in situ-formed Cu(II) complex species” value (from here on “logβi”) was 10.20 ± 0.03 and the “logKi of in situ-formed Cu(II) complex species” value (“logKi” below) came to 9.58.
For `Cc1cc(CN(Cc2ccccn2)Cc2ccccn2)c([O-])c(CN(Cc2ccccn2)Cc2ccccn2)c1.[Cu+2].[Cu+2]` [[Cu2L]^3+], in data set [2], the “logβi” value was determined as 15.50 ± 0.03 and the “logKi” value is 9.26.
Take `NCCc1cc(CN(Cc2ccccn2)Cc2ccccn2)c(O)c(CN(Cc2ccccn2)Cc2ccccn2)c1` [HL-RNH2]: the Kbind in data set [3] is recorded as > 10^12 M^−2.
As to `Cc1cc(CN(Cc2ccccn2)Cc2ccccn2)c(O)c(CN(Cc2ccccn2)Cc2ccccn2)c1.[Cu+2]` [[CuHL]^2+], in data set [2], the “logβi” value is recorded as 17.02 ± 0.03 and the “logKi” value is reported as 6.82.
Turning to `O.O.O.O.O.O.[Cu+2].[O-][Cl+3]([O-])([O-])[O-].[O-][Cl+3]([O-])([O-])[O-]` [Cu(ClO4)2, copper perchlorate], in data set [4], the “peroxidase-like (pro-oxidant) activity, Abs at 418 nm vs time” value is recorded as “much higher”.
